Source: patent US9399637B2, “Substituted heteroaryl compounds and methods of use” (Calitor Sciences, LLC, priority 2014, dated 2016)

What was measured:
[1] = Compound stability in human liver microsomes; format: in vitro ADME; conditions: pH 7.4; for half-life at 5 μM: human liver microsomes 0.5 mg protein/mL, compound 5 μM, NADPH, 37° C., read-out: Human T1/2; for CLint scaled at 5 μM: human liver microsomes, in vivo CLint extrapolated
Description: (§1) Human or rat liver microsomes incubations were conducted in duplicate in polypropylene tubes. The typical incubation mixtures consisted of human or rat liver microsomes (0.5 mg protein/mL), compounds of interest (5 μM) and NADPH (1.0 mM) in a total volume of 200 μL potassium phosphate buffer (PBS, 100 mM, pH 7.4). Compounds were dissolved in DMSO and diluted with PBS such that the final concentration of DMSO was 0.05%. The enzymatic reactions were commenced with the addition of […] after a 3-min preincubation and incubated in a water bath open to the air at 37° C. Reactions were terminated at various time points (0, 5, 10, 15, 30, 60 min) by adding equal volume of ice-cold acetonitrile. The samples were stored at […] until LC/MS/MS assays.
(§2) The concentrations of compounds in the incubation mixtures of human or rat liver microsomes were determined by a LC/MS/MS method. The ranges of the linearity in the concentration range were determined for each tested compounds.
(§3) A parallel incubation was performed using denatured microsomes as the negative control, and reactions were terminated at various time points (0, 15, 60 min) after incubation at 37° C.
(§4) Dextromethorphan (70 μM) was selected as the positive control, and reactions were terminated at various time points (0, 5, 10, 15, 30, 60 min) after incubation at 37° C. Both positive and negative control samples were included in each assay to ensure the integrity of the microsomal incubation system.
(§5) The concentrations of compounds in human or rat liver microsome incubations were plotted as a percentage of the relevant zero time point control for each reaction. The in vivo CLint were extrapolated (ref.: Naritomi, Y.; Terashita, S.; Kimura, S.; Suzuki, A.; Kagayama, A.; and Sugiyama, Y.; Prediction of human hepatic clearance from in vivo animal experiments and in vitro metabolic studies with liver microsomes from animals and humans. Drug Metab. Dispos., 2001, 29: 1316-1324).

[2] = Compound stability in rat liver microsomes; format: in vitro ADME; conditions: pH 7.4; for half-life at 5 μM: rat liver microsomes 0.5 mg protein/mL, compound 5 μM, NADPH, 37° C., read-out: Rat T1/2; for CLint scaled at 5 μM: rat liver microsomes, in vivo CLint extrapolated
Description: as §1, §2, §3, §4, §5

JAK1 (h) = molecular target: T1, JAK1 (h) (Homo sapiens, UniProt P23458); experiment: JAK1 kinase assay; format: biochemical
T1 construct: purchased Millipore UK Ltd (assays run there as a service)
Description: (§6) Kinase assays can be performed by measurement of incorporation of γ-^33P ATP into immobilized myelin basic protein (MBP). High binding white 384 well plates (Greiner) are coated with MBP (Sigma #M-1891) by incubation of 60 μL/well of 20 μg/mL MBP in Tris-buffered saline (TBS; 50 mM Tris pH 8.0, 138 mM NaCl, 2.7 mM KCl) for 24 h at 4° C. Plates are washed 3× with 100 μL TBS. Kinase reactions are carried out in a total volume of 34 μL in kinase buffer (5 mM Hepes pH 7.6, 15 mM NaCl, 0.01% bovine gamma globulin (Sigma #I-5506), 10 mM MgCl2, 1 mM DTT, 0.02% TritonX-100). Compound dilutions are performed in DMSO and added to assay wells to a final DMSO concentration of 1%. Each data point is measured in duplicate, and at least two duplicate assays are performed for each individual compound determination. Enzyme is added to final concentrations of 10 nM or 20 nM, for example. A mixture of unlabeled ATP and γ-^33P ATP is added to start the reaction (2×10^6 cpm of γ-^33P ATP per well (3000 Ci/mmole) and 10 μM unlabeled ATP, typically. The reactions are carried out for 1 h at room temperature with shaking Plates are washed 7× with TBS, followed by the addition of 50 μL/well scintillation fluid (Wallac). Plates are read using a Wallac Trilux counter. This is only one format of such assays; various other formats are possible, as known to one skilled in the art.
(§7) The above assay procedure can be used to determine the IC50 for inhibition and/or the inhibition constant, Ki. The IC50 is defined as the concentration of compound required to reduce the enzyme activity by 50% under the condition of the assay. The IC50 value is estimated by preparing a 10 point curve using a ½ log dilution series (for example, a typical curve may be prepared using the following compound concentrations: 3 μM, 1 μM, 0.3 μM, 0.1 μM, 0.03 μM, 0.01 μM, 0.003 μM, 0.001 μM, 0.0003 μM and 0 μM).
JAK1 (h) is incubated with 20 mM Tris/HCl pH 7.5, 0.2 mM EDTA, 500 μM […], 10 mM MgAcetate and [γ-^33P-ATP] (specific activity approx. 500 cpm/pmol, concentration as required).
(§8) The kinase assays described herein were performed at Millipore UK Ltd, Dundee Technology Park, Dundee DD2 1SW, UK.

[3] = Pharmacokinetics after intravenous and oral administration in rats; format: in vivo; conditions: iv dosing, 1 mg/kg; for AUC(0-t) / half-life / Vd: rat, plasma; for Vd: read-out: Vss
Description: The LC/MS/MS system used in the analysis consists of an Agilent 1200 Series vacuum degasser, binary pump, well-plate autosampler, thermostatted column compartment, the Agilent G6430 Triple Quadrupole Mass Spectrometer with an electrosprayionization (ESI) source. Quantitative analysis was carried out using MRM mode. The parameters for MRM transitions are in the Table A.
An Agilent XDB-C18, 2.1×30 mm, 3.5 μM column was used for the analysis. 5 μL of the samples were injected. Analysis condition: The mobile phase was 0.1% formic acid in water (A) and 0.1% formic acid in methanol (B). The flow rate was 0.4 mL/min. And the gradient of Mobile phase was in the Table B.
Alternatively, an Agilent 6330 series LC/MS/MS spectrometer equipped with G1312A binary pumps, a G1367A autosampler and a G1314C UV detector were used in the analysis. An ESI source was used on the LC/MS/MS spectrometer. The analysis was done in positive ion mode as appropriate and the MRM transition for each analyte was optimized using standard solution. A Capcell MP-C18 100×4.6 mm I.D., […] column (Phenomenex, Torrance, Calif., USA) was used during the analysis. The mobile phase was 5 mM ammonia acetate, 0.1% MeOH in water (A): 5 mM ammonia acetate, 0.1% MeOH in acetonitrile (B) (70:30, v/v). The flow rate was 0.6 mL/min. Column was maintained at ambient temperature. 20 μL of the samples were injected.
The compounds disclosed herein are assessed in pharmacokinetic studies in mice, rats, dogs or monkeys. The compounds are administered as a water solution, 2% HPMC+1% TWEEN®80 in water solution, 5% DMSO+5% solutol in saline, 4% MC suspension or capsule. For the intravenous administration, the animals are generally given at 1 or 2 mg/kg dose. For the oral (p.o.) dosing, mice and rats are generally given 5 or 10 mg/kg dose, and dogs and monkeys are generally given 10 mg/kg dose. The blood samples (0.3 mL) are drawn at 0.25, 0.5, 1.0, 2.0, 3.0, 4.0, 6.0, 8.0, 12 and 24 h time points or 0.083, 0.25, 0.5, 1.0, 2.0, 4.0, 6.0, 8.0 and 24 h time points and centrifuged at 3,000 or 4000 rpm for 2 to 10 min. The plasma solutions are collected, and stored at −20° C. or −70° C. until analyzed by LC/MS/MS as described above.

JAK2 (h) = molecular target: T2, JAK2 (h) (Homo sapiens, UniProt O60674); experiment: JAK2 kinase assay; format: biochemical
T2 construct: purchased Millipore UK Ltd (assays run there as a service)
Description: as §6, §7
(specific activity approx. 500 cpm/pmol, concentration as required).
as §8

T1 sequence (P23458 whole entry): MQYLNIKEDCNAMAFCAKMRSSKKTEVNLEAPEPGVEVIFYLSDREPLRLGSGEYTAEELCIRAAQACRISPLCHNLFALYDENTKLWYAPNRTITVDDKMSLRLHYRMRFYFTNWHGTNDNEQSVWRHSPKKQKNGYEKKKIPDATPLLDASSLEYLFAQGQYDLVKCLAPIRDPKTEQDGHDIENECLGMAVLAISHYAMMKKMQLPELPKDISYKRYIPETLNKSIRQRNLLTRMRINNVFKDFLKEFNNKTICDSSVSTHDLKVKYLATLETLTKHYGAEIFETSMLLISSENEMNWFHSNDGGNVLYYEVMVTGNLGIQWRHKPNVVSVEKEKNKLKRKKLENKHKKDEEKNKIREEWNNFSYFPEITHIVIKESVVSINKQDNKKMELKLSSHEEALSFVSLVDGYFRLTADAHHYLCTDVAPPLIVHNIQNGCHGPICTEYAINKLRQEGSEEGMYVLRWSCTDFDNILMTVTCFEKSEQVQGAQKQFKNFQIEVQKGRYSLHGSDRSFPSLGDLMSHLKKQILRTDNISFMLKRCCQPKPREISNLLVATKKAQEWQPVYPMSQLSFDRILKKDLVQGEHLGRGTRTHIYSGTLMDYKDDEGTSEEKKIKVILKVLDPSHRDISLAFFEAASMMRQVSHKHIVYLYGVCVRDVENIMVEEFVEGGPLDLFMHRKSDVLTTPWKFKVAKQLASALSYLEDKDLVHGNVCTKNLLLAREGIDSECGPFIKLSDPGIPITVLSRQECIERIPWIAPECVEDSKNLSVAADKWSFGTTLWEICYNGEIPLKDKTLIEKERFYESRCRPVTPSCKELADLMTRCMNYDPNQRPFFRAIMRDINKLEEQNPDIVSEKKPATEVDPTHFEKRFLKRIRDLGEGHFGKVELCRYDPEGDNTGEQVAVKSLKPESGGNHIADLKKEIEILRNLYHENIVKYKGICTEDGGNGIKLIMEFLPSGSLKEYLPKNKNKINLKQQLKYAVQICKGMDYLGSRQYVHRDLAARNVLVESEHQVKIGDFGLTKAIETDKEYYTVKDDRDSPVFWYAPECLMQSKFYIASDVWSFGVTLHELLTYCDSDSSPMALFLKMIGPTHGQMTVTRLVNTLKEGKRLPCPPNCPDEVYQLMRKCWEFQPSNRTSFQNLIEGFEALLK
T2 sequence (O60674 whole entry): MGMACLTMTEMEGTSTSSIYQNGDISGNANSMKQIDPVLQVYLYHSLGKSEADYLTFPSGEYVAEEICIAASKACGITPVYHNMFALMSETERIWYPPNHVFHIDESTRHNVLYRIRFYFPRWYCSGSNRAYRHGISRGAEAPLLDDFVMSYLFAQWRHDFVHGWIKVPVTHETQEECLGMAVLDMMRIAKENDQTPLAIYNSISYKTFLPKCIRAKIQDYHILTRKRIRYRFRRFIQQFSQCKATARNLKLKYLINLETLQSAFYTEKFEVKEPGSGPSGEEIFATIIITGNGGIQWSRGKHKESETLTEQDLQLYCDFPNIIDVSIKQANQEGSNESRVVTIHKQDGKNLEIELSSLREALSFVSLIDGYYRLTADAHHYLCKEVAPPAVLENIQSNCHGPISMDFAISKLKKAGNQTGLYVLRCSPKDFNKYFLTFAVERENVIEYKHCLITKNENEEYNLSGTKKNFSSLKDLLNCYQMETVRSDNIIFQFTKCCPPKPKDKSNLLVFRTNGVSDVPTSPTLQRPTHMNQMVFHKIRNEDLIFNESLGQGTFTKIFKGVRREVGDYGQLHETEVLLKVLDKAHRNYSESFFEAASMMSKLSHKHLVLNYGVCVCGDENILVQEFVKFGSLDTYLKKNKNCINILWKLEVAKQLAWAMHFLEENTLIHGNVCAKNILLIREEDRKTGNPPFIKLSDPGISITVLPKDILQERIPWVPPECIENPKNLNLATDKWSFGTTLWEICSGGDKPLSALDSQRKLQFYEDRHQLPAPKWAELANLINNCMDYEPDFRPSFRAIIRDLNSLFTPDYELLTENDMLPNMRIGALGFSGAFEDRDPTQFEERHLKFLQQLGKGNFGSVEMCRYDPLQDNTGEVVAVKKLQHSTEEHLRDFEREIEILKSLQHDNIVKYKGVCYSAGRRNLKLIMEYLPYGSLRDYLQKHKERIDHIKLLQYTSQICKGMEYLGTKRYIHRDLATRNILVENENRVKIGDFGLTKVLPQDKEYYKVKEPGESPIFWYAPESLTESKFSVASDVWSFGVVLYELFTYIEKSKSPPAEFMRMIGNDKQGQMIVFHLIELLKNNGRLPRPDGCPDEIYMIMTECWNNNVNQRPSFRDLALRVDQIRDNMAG

Compound | half-life at 5 μM [1] | CLint scaled at 5 μM [1] | half-life at 5 μM [2] | CLint scaled at 5 μM [2] | IC50 (JAK1 (h)) | Cl/F [3] | AUC(0-t) [3] | half-life [3] | Vd [3] | IC50 (JAK2 (h))
Cc1cnc(Nc2ccc3c(C)n(C)nc3c2)nc1NC1CC2CN(C(=O)CC#N)CC2C1 (stereo not drawn) [Ex. 9, 3-(5-((2-((2,3-dimethyl-2H-indazol-6-yl)amino)-5-methylpyrimidin-4-yl)amino)hexahydrocyclopenta[c]pyrrol-2(1H)-yl)-3-oxopropanenitrile] | 31.2 min | 55.7 mL/min/kg | 52.7 min | 47.1 mL/min/kg | 2 nM |  |  |  |  | 
CC(=O)N1CCC2(CCC(Nc3nc(Nc4ccc5c(C)n(C)nc5c4)ncc3C)CC2)CC1 [Ex. 13, 1-(9-((2-((2,3-dimethyl-2H-indazol-6-yl)amino)-5-methylpyrimidin-4-yl)amino)-3-azaspiro[5.5]undecan-3-yl)ethanone] | 51.7 min | 33.6 mL/min/kg | 27.9 min | 89.2 mL/min/kg | 2 nM | 75.5 mL/min/kg | 238 ng·h/mL | 38.4 min | 3.5 L/kg | 
Cc1cnc(Nc2ccc3c(C)n(C)nc3c2)nc1NC1CCC2(CC1)CCN(C(=O)CC#N)CC2 [Ex. 12, 3-(9-((2-((2,3-dimethyl-2H-indazol-6-yl)amino)-5-methylpyrimidin-4-yl)amino)-3-azaspiro[5.5]undecan-3-yl)-3-oxopropanenitrile] | 166 min | 10.4 mL/min/kg | 57.8 min | 43 mL/min/kg | 1 nM | 114 mL/min/kg | 144 ng·h/mL | 54 min | 5.71 L/kg | 
Cc1c2ccc(Nc3ncc(Cl)c(NC4CCC5(CC4)CCN(C(=O)CC#N)CC5)n3)cc2nn1C [Ex. 6, 3-(9-((5-chloro-2-((2,3-dimethyl-2H-indazol-6-yl)amino)pyrimidin-4-yl)amino)-3-azaspiro[5.5]undecan-3-yl)-3-oxopropanenitrile] | 79.8 min | 21.8 mL/min/kg | 41 min | 60.6 mL/min/kg | 0.6 nM | 22.3 mL/min/kg | 743 ng·h/mL | 78.6 min | 2.55 L/kg | 2 nM
CC(=O)N1CC2CC(Nc3nc(Nc4ccc5c(C)n(C)nc5c4)ncc3C)CC2C1 (stereo not drawn) [Ex. 11, 1-(5-((2-((2,3-dimethyl-2H-indazol-6-yl)amino)-5-methylpyrimidin-4-yl)amino)hexahydrocyclopenta[c]pyrrol-2(1H)-yl)ethanone] |  |  |  |  | 57 nM |  |  |  |  | 
Cc1cnc(Nc2ccc3c(C)n(C)nc3c2)nc1NC1CC2CN(S(C)(=O)=O)CC2C1 (stereo not drawn) [Ex. 10, N^2-(2,3-dimethyl-2H-indazol-6-yl)-5-methyl-N^4-(2-(methylsulfonyl)octahydrocyclopenta[c]pyrrol-5-yl)pyrimidine-2,4-diamine] | 20 min | 87 mL/min/kg | 50.7 min | 49 mL/min/kg | 7 nM | 33.2 mL/min/kg | 501 ng·h/mL | 43.8 min | 1.75 L/kg | 
Cc1c2ccc(Nc3nccc(N(C)C4CCC5(CC4)CCN(C(=O)CC#N)C5)n3)cc2nn1C (stereo not drawn) [Ex. 2, 3-(8-((2-((2,3-dimethyl-2H-indazol-6-yl)amino)pyrimidin-4-yl)(methyl)amino)-2-azaspiro[4.5]decan-2-yl)-3-oxopropanenitrile] | 20.3 min | 85.5 mL/min/kg | 22.2 min | 112 mL/min/kg |  | 49.8 mL/min/kg | 332 ng·h/mL | 109 min | 3.59 L/kg | 
